Results reported in the supplement of paper PMC11699113.

Tested on: ED cells (E. derm NBM-6, ATCC CCL-57)
Test: cell viability (ATP, CellTiter-Glo) relative to untreated control (fraction of control); higher = less cytotoxic
[1] = 0.125 µM, incubation time: 144h

Compound: COC(=O)N[C@H](C(=O)N[C@@H](Cc1ccccc1)[C@@H](O)CN(Cc1ccc(-c2ccccn2)cc1)NC(=O)[C@@H](NC(=O)OC)C(C)(C)C)C(C)(C)C [atazanavir]
- cell viability (0.125 µM, incubation time: 1h): 1.05
- cell viability (0.125 µM, incubation time: 24h): 1.07
- cell viability (0.125 µM, incubation time: 72h): 1.09
- cell viability [1]: 1.02
- cell viability (0.25 µM, incubation time: 1h): 1.05
- cell viability (0.25 µM, incubation time: 24h): 1.08
- cell viability (0.25 µM, incubation time: 72h): 1.12
- cell viability (0.25 µM, incubation time: 144h): 1.05
- cell viability (0.5 µM, incubation time: 1h): 1.05
- cell viability (0.5 µM, incubation time: 24h): 1.07
- cell viability (0.5 µM, incubation time: 72h): 1.1
- cell viability (0.5 µM, incubation time: 144h): 1.03
- cell viability (2 µM, incubation time: 1h): 1.06
- cell viability (2 µM, incubation time: 24h): 1.07
- cell viability (2 µM, incubation time: 72h): 1.1
- cell viability (2 µM, incubation time: 144h): 1.03
- cell viability (10 µM, incubation time: 1h): 1.06
- cell viability (10 µM, incubation time: 24h): 1.06
- cell viability (10 µM, incubation time: 72h): 1.13
- cell viability (10 µM, incubation time: 144h): 1.07
- cell viability (20 µM, incubation time: 1h): 1.04
- cell viability (20 µM, incubation time: 24h): 1.06
- cell viability (20 µM, incubation time: 72h): 1.12
- cell viability (20 µM, incubation time: 144h): 1.07
- cell viability (50 µM, incubation time: 1h): 1.03
- cell viability (50 µM, incubation time: 24h): 1.03
- cell viability (50 µM, incubation time: 72h): 1.09
- cell viability (50 µM, incubation time: 144h): 1.04
- cell viability (80 µM, incubation time: 1h): 1.01
- cell viability (80 µM, incubation time: 24h): 0.979
- cell viability (80 µM, incubation time: 72h): 0.802
- cell viability (80 µM, incubation time: 144h): 0.554
- cell viability (100 µM, incubation time: 1h): 1.02
- cell viability (100 µM, incubation time: 24h): 0.941
- cell viability (100 µM, incubation time: 72h): 0.416
- cell viability (100 µM, incubation time: 144h): 0.0524
- cell viability (124 µM, incubation time: 1h): 1.02
- cell viability (124 µM, incubation time: 24h): 0.798
- cell viability (124 µM, incubation time: 72h): 0.0698
- cell viability (124 µM, incubation time: 144h): 0.00492

Compound: O=C(NCc1c(F)cc(F)cc1F)c1cn2c(c(O)c1=O)C(=O)N1[C@H]3CC[C@H](C3)O[C@@H]1C2 [bictegravir]
- cell viability (0.06 µM, incubation time: 1h): 1
- cell viability (0.06 µM, incubation time: 24h): 1.01
- cell viability (0.06 µM, incubation time: 72h): 1.07
- cell viability (0.06 µM, incubation time: 144h): 1.07
- cell viability (0.125 µM, incubation time: 1h): 0.997
- cell viability (0.125 µM, incubation time: 24h): 0.998
- cell viability (0.125 µM, incubation time: 72h): 1.09
- cell viability [1]: 1.06
- cell viability (0.325 µM, incubation time: 1h): 0.994
- cell viability (0.325 µM, incubation time: 24h): 1.01
- cell viability (0.325 µM, incubation time: 72h): 1.1
- cell viability (0.325 µM, incubation time: 144h): 1.07
- cell viability (2 µM, incubation time: 1h): 0.995
- cell viability (2 µM, incubation time: 24h): 1.01
- cell viability (2 µM, incubation time: 72h): 1.1
- cell viability (2 µM, incubation time: 144h): 1.06
- cell viability (5 µM, incubation time: 1h): 0.987
- cell viability (5 µM, incubation time: 24h): 1.02
- cell viability (5 µM, incubation time: 72h): 1.11
- cell viability (5 µM, incubation time: 144h): 1.06
- cell viability (10 µM, incubation time: 1h): 0.99
- cell viability (10 µM, incubation time: 24h): 1.01
- cell viability (10 µM, incubation time: 72h): 1.11
- cell viability (10 µM, incubation time: 144h): 1.05
- cell viability (20 µM, incubation time: 1h): 0.993
- cell viability (20 µM, incubation time: 24h): 1.03
- cell viability (20 µM, incubation time: 72h): 1.08
- cell viability (20 µM, incubation time: 144h): 1.01
- cell viability (30 µM, incubation time: 1h): 0.994
- cell viability (30 µM, incubation time: 24h): 1.01
- cell viability (30 µM, incubation time: 72h): 1.05
- cell viability (30 µM, incubation time: 144h): 0.972
- cell viability (42 µM, incubation time: 1h): 0.98
- cell viability (42 µM, incubation time: 24h): 1
- cell viability (42 µM, incubation time: 72h): 0.997
- cell viability (42 µM, incubation time: 144h): 0.952
- cell viability (concentration (µM): C04 (printed 10, out of sequence, likely typo), incubation time: 1h): 1
- cell viability (concentration (µM): C04 (printed 10, out of sequence, likely typo), incubation time: 24h): 1.01
- cell viability (concentration (µM): C04 (printed 10, out of sequence, likely typo), incubation time: 72h): 1.09
- cell viability (concentration (µM): C04 (printed 10, out of sequence, likely typo), incubation time: 144h): 1.07

Compound: Cc1cc(C#N)cc(C)c1Oc1nc(Nc2ccc(C#N)cc2)nc(N)c1Br [etravirine]
- cell viability (0.5 µM, incubation time: 1h): 1.03
- cell viability (0.5 µM, incubation time: 24h): 1.06
- cell viability (0.5 µM, incubation time: 72h): 1.01
- cell viability (0.5 µM, incubation time: 144h): 1
- cell viability (2 µM, incubation time: 1h): 1.02
- cell viability (2 µM, incubation time: 24h): 1.02
- cell viability (2 µM, incubation time: 72h): 0.978
- cell viability (2 µM, incubation time: 144h): 0.994
- cell viability (5 µM, incubation time: 1h): 0.959
- cell viability (5 µM, incubation time: 24h): 1.04
- cell viability (5 µM, incubation time: 72h): 0.953
- cell viability (5 µM, incubation time: 144h): 0.97
- cell viability (10 µM, incubation time: 1h): 0.693
- cell viability (10 µM, incubation time: 24h): 0.986
- cell viability (10 µM, incubation time: 72h): 0.894
- cell viability (10 µM, incubation time: 144h): 0.927
- cell viability (25 µM, incubation time: 1h): 0.424
- cell viability (25 µM, incubation time: 24h): 0.866
- cell viability (25 µM, incubation time: 72h): 0.829
- cell viability (25 µM, incubation time: 144h): 0.871
- cell viability (50 µM, incubation time: 1h): 0.372
- cell viability (50 µM, incubation time: 24h): 0.817
- cell viability (50 µM, incubation time: 72h): 0.796
- cell viability (50 µM, incubation time: 144h): 0.835
- cell viability (80 µM, incubation time: 1h): 0.346
- cell viability (80 µM, incubation time: 24h): 0.679
- cell viability (80 µM, incubation time: 72h): 0.75
- cell viability (80 µM, incubation time: 144h): 0.784
- cell viability (100 µM, incubation time: 1h): 0.329
- cell viability (100 µM, incubation time: 24h): 0.674
- cell viability (100 µM, incubation time: 72h): 0.723
- cell viability (100 µM, incubation time: 144h): 0.775
- cell viability (200 µM, incubation time: 1h): 0.328
- cell viability (200 µM, incubation time: 24h): 0.413
- cell viability (200 µM, incubation time: 72h): 0.541
- cell viability (200 µM, incubation time: 144h): 0.626
- cell viability (300 µM, incubation time: 1h): 0.322
- cell viability (300 µM, incubation time: 24h): 0.249
- cell viability (300 µM, incubation time: 72h): 0.412
- cell viability (300 µM, incubation time: 144h): 0.525
